Measured values reported in patent publication US8802597B2, “Herbicidal pyrimidines” (E I du Pont de Nemours and Company, priority 2003, dated 2014).

Assays:
Assay in all cases: Test E flooded paddy water application
Assay type in all cases: in vivo
[1] = system: barnyardgrass (Echinochloa crus-galli); settings: Flood, 21 days, scale 0 to 100 (0 no effect, 100 complete control); for Plant response rating, Barnyardgrass: 16 g ai/ha
Method in brief: (§1)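 Weeds sown in sterilized Tama silt loam (2.6% organic matter), greenhouse 29.5/26.7° C, 16-h photoperiod; at 2.0–2.5-leaf stage pots flooded to 3 cm and compound added to paddy water. Visual rating vs untreated controls after 21 days, 0 (no effect) to 100 (complete control).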

[2] = system: bearded (brdd.) sprangletop (Leptochloa fusca ssp. fascicularis); settings: Flood, 21 days, scale 0 to 100 (0 no effect, 100 complete control); for Plant response rating, Sprangletop, Brdd.: 16 g ai/ha
Method in brief: as §1

[3] = system: ducksalad (Heteranthera limosa); settings: Flood, 21 days, scale 0 to 100 (0 no effect, 100 complete control); for Plant response rating, Ducksalad: 16 g ai/ha
Method in brief: as §1

[4] = system: early watergrass (Echinochloa oryzoides); settings: Flood, 21 days, scale 0 to 100 (0 no effect, 100 complete control); for Plant response rating, Watergrass, Early: 16 g ai/ha
Method in brief: as §1

[5] = system: junglerice (Echinochloa colona); settings: Flood, 21 days, scale 0 to 100 (0 no effect, 100 complete control); for Plant response rating, Junglerice: 16 g ai/ha
Method in brief: as §1

[6] = system: late watergrass (Echinochloa oryzicola); settings: Flood, 21 days, scale 0 to 100 (0 no effect, 100 complete control); for Plant response rating, Watergrass, Late: 16 g ai/ha
Method in brief: as §1

[7] = system: purple redstem (Ammannia coccinea); settings: Flood, 21 days, scale 0 to 100 (0 no effect, 100 complete control); for Plant response rating, Redstem: 16 g ai/ha
Method in brief: as §1

[8] = system: rice flatsedge (Cyperus iria); settings: Flood, 21 days, scale 0 to 100 (0 no effect, 100 complete control); for Plant response rating, Flatsedge, Rice: 16 g ai/ha
Method in brief: as §1

[9] = system: smallflower umbrella sedge (Cyperus difformis); settings: Flood, 21 days, scale 0 to 100 (0 no effect, 100 complete control); for Plant response rating, Sedge, Umbrella: 16 g ai/ha
Method in brief: as §1

[10] = system: transplanted rice seedlings (Oryza sativa cv. ‘Japonica-M202’); settings: Flood, 21 days, scale 0 to 100 (0 no effect, 100 complete control); for Plant response rating, Rice, Transplanted: 16 g ai/ha
Method in brief: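 Response scored visually on a 0–100 scale (100 = complete control) at 21 days against untreated pots. Treatment was into paddy water 3 cm deep over silt loam, with plants at the 2.0–2.5-leaf stage, grown under 16-h light at 29.5/26.7 °C day/night.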

[11] = system: water seeded rice seedlings (Oryza sativa cv. ‘Japonica-M202’); settings: Flood, 21 days, scale 0 to 100 (0 no effect, 100 complete control); for Plant response rating, Rice, Water Seeded: 16 g ai/ha
Method in brief: as §1

SMILES: CCOC(=O)c1nc(-c2ccc3c(c2)OCO3)nc(N)c1Cl [Compound 74]
- Barnyardgrass plant response rating ([1]; 32 g ai/ha): 0
- Barnyardgrass plant response rating ([1]; 64 g ai/ha): 0
- Barnyardgrass plant response rating ([1]; 250 g ai/ha): 0
- Plant response rating, Barnyardgrass [1]: 0
- Sprangletop, Brdd. plant response rating ([2]; 32 g ai/ha): 0
- Sprangletop, Brdd. plant response rating ([2]; 64 g ai/ha): 0
- Sprangletop, Brdd. plant response rating ([2]; 125 g ai/ha): 0
- Sprangletop, Brdd. plant response rating ([2]; 250 g ai/ha): 0
- Plant response rating, Sprangletop, Brdd. [2]: 0
- Ducksalad plant response rating ([3]; 32 g ai/ha): 100
- Ducksalad plant response rating ([3]; 64 g ai/ha): 100
- Ducksalad plant response rating ([3]; 125 g ai/ha): 100
- Ducksalad plant response rating ([3]; 250 g ai/ha): 100
- Plant response rating, Ducksalad [3]: 100
- Watergrass, Early plant response rating ([4]; 32 g ai/ha): 0
- Watergrass, Early plant response rating ([4]; 64 g ai/ha): 0
- Watergrass, Early plant response rating ([4]; 125 g ai/ha): 0
- Watergrass, Early plant response rating ([4]; 250 g ai/ha): 0
- Plant response rating, Watergrass, Early [4]: 0
- Junglerice plant response rating ([5]; 32 g ai/ha): 0
- Junglerice plant response rating ([5]; 64 g ai/ha): 0
- Junglerice plant response rating ([5]; 125 g ai/ha): 0
- Junglerice plant response rating ([5]; 250 g ai/ha): 65
- Plant response rating, Junglerice [5]: 0
- Watergrass, Late plant response rating ([6]; 32 g ai/ha): 0
- Watergrass, Late plant response rating ([6]; 64 g ai/ha): 0
- Watergrass, Late plant response rating ([6]; 125 g ai/ha): 0
- Watergrass, Late plant response rating ([6]; 250 g ai/ha): 0
- Plant response rating, Watergrass, Late [6]: 0
- Redstem plant response rating ([7]; 32 g ai/ha): 0
- Redstem plant response rating ([7]; 64 g ai/ha): 0
- Redstem plant response rating ([7]; 125 g ai/ha): 20
- Redstem plant response rating ([7]; 250 g ai/ha): 25
- Plant response rating, Redstem [7]: 0
- Flatsedge, Rice plant response rating ([8]; 32 g ai/ha): 0
- Flatsedge, Rice plant response rating ([8]; 64 g ai/ha): 0
- Flatsedge, Rice plant response rating ([8]; 125 g ai/ha): 90
- Flatsedge, Rice plant response rating ([8]; 250 g ai/ha): 95
- Plant response rating, Flatsedge, Rice [8]: 0
- Sedge, Umbrella plant response rating ([9]; 32 g ai/ha): 0
- Sedge, Umbrella plant response rating ([9]; 64 g ai/ha): 80
- Sedge, Umbrella plant response rating ([9]; 125 g ai/ha): 95
- Sedge, Umbrella plant response rating ([9]; 250 g ai/ha): 100
- Plant response rating, Sedge, Umbrella [9]: 0
- Rice, Transplanted plant response rating ([10]; 32 g ai/ha): 0
- Rice, Transplanted plant response rating ([10]; 64 g ai/ha): 0
- Rice, Transplanted plant response rating ([10]; 125 g ai/ha): 0
- Rice, Transplanted plant response rating ([10]; 250 g ai/ha): 0
- Plant response rating, Rice, Transplanted [10]: 0
- Rice, Water Seeded plant response rating ([11]; 32 g ai/ha): 0
- Rice, Water Seeded plant response rating ([11]; 64 g ai/ha): 0
- Rice, Water Seeded plant response rating ([11]; 125 g ai/ha): 0
- Rice, Water Seeded plant response rating ([11]; 250 g ai/ha): 0
- Plant response rating, Rice, Water Seeded [11]: 0

SMILES: Nc1nc(-c2ccc(Cl)cc2)nc(C(=O)[O-])c1Cl.[Na+] [Compound 117]
- Barnyardgrass plant response rating ([1]; 32 g ai/ha): 0
- Barnyardgrass plant response rating ([1]; 64 g ai/ha): 0
- Barnyardgrass plant response rating ([1]; 125 g ai/ha): 0
- Barnyardgrass plant response rating ([1]; 250 g ai/ha): 0
- Plant response rating, Barnyardgrass [1]: 0
- Sprangletop, Brdd. plant response rating ([2]; 32 g ai/ha): 0
- Sprangletop, Brdd. plant response rating ([2]; 64 g ai/ha): 0
- Sprangletop, Brdd. plant response rating ([2]; 125 g ai/ha): 0
- Sprangletop, Brdd. plant response rating ([2]; 250 g ai/ha): 0
- Plant response rating, Sprangletop, Brdd. [2]: 0
- Ducksalad plant response rating ([3]; 32 g ai/ha): 100
- Ducksalad plant response rating ([3]; 64 g ai/ha): 100
- Ducksalad plant response rating ([3]; 125 g ai/ha): 100
- Ducksalad plant response rating ([3]; 250 g ai/ha): 100
- Plant response rating, Ducksalad [3]: 100
- Watergrass, Early plant response rating ([4]; 32 g ai/ha): 0
- Watergrass, Early plant response rating ([4]; 64 g ai/ha): 0
- Watergrass, Early plant response rating ([4]; 125 g ai/ha): 0
- Watergrass, Early plant response rating ([4]; 250 g ai/ha): 0
- Plant response rating, Watergrass, Early [4]: 0
- Junglerice plant response rating ([5]; 32 g ai/ha): 0
- Junglerice plant response rating ([5]; 64 g ai/ha): 0
- Junglerice plant response rating ([5]; 125 g ai/ha): 0
- Junglerice plant response rating ([5]; 250 g ai/ha): 0
- Plant response rating, Junglerice [5]: 0
- Watergrass, Late plant response rating ([6]; 32 g ai/ha): 0
- Watergrass, Late plant response rating ([6]; 64 g ai/ha): 0
- Watergrass, Late plant response rating ([6]; 125 g ai/ha): 0
- Watergrass, Late plant response rating ([6]; 250 g ai/ha): 0
- Plant response rating, Watergrass, Late [6]: 0
- Redstem plant response rating ([7]; 32 g ai/ha): 0
- Redstem plant response rating ([7]; 64 g ai/ha): 0
- Redstem plant response rating ([7]; 125 g ai/ha): 0
- Redstem plant response rating ([7]; 250 g ai/ha): 30
- Plant response rating, Redstem [7]: 0
- Flatsedge, Rice plant response rating ([8]; 32 g ai/ha): 100
- Flatsedge, Rice plant response rating ([8]; 64 g ai/ha): 100
- Flatsedge, Rice plant response rating ([8]; 125 g ai/ha): 100
- Flatsedge, Rice plant response rating ([8]; 250 g ai/ha): 100
- Plant response rating, Flatsedge, Rice [8]: 100
- Sedge, Umbrella plant response rating ([9]; 32 g ai/ha): 85
- Sedge, Umbrella plant response rating ([9]; 64 g ai/ha): 100
- Sedge, Umbrella plant response rating ([9]; 125 g ai/ha): 100
- Sedge, Umbrella plant response rating ([9]; 250 g ai/ha): 100
- Plant response rating, Sedge, Umbrella [9]: 60
- Rice, Transplanted plant response rating ([10]; 32 g ai/ha): 0
- Rice, Transplanted plant response rating ([10]; 64 g ai/ha): 0
- Rice, Transplanted plant response rating ([10]; 125 g ai/ha): 0
- Rice, Transplanted plant response rating ([10]; 250 g ai/ha): 20
- Plant response rating, Rice, Transplanted [10]: 0
- Rice, Water Seeded plant response rating ([11]; 32 g ai/ha): 0
- Rice, Water Seeded plant response rating ([11]; 64 g ai/ha): 0
- Rice, Water Seeded plant response rating ([11]; 125 g ai/ha): 0
- Rice, Water Seeded plant response rating ([11]; 250 g ai/ha): 0
- Plant response rating, Rice, Water Seeded [11]: 0
